What was measured:
[1] = molecular target: T1, Aromatase (Homo sapiens, UniProt P11511); test: Inhibition of human placental aromatase expressed in human MCF7 cells using [1beta-3H]-androstenedione as substrate assessed as tritiated H2O release at 10 uM after 1 hr by liquid scintillation counting method in presence of progesterone relative to control; type: cell-based
T1 sequence (P11511 whole entry): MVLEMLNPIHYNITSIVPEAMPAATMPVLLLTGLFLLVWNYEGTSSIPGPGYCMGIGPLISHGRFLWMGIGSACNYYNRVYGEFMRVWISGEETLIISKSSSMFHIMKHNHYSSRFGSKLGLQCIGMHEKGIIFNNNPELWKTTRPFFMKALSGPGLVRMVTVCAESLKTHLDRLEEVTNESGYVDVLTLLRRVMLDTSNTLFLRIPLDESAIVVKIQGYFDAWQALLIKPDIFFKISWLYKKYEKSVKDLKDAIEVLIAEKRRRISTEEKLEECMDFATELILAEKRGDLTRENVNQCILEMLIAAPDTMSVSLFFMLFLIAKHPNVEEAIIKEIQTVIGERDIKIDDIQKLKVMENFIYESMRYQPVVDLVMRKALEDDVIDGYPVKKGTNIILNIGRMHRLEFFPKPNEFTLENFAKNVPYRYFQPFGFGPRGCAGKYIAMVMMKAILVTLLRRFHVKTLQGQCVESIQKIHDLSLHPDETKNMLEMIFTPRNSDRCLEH

[2] = molecular target: T1, Aromatase; test: Inhibition of aromatase in human placental microsomes using [1beta-3H]-androstenedione as substrate assessed as tritiated H2O release at 2 uM after 15 mins by liquid scintillation counting method relative to control; set-up: species or system Placenta; conditions: 0.25 h
[3] = molecular target: T1, Aromatase; test: Inhibition of aromatase in human placental microsomes using [1beta-3H]-androstenedione as substrate assessed as tritiated H2O release after 15 mins by liquid scintillation counting method; set-up: species or system Placenta
[4] = molecular target: T1, Aromatase; test: Inhibition of aromatase in human placental microsomes using [1beta-3H]-androstenedione as substrate assessed as tritiated H2O release at 0.5 uM after 15 mins by liquid scintillation counting method relative to control; set-up: species or system Placenta; conditions: 0.25 h
[5] = molecular target: T1, Aromatase; test: Inhibition of human placental aromatase expressed in human MCF7 cells using [1beta-3H]-androstenedione as substrate at 1 uM after 1 hr by liquid scintillation counting method in presence of progesterone relative to control; type: cell-based

SMILES	inhibition at 10 µM [1] [%]	inhibition at 2 µM [2] [%]	other results
C[C@]12CCC=C[C@@H]1CC[C@@H]1[C@@H]2CC[C@]2(C)C(=O)CC[C@@H]12	56.9	–	–
C[C@]12CC[C@H]3O[C@H]3[C@@H]1CC[C@@H]1[C@@H]2CC[C@]2(C)C(=O)CC[C@@H]12	80.4	–	–
C[C@]12CCCC=C1CC[C@@H]1[C@@H]2CC[C@]2(C)C(=O)CC[C@@H]12	62.6	–	–
C[C@]12CC[C@H]3[C@@H](CC[C@@]45O[C@@H]4CCC[C@]35C)[C@@H]1CCC2=O	53.2	–	–
C=CC[C@@H]1CC2=CC(=O)C=C[C@]2(C)[C@H]2CC[C@]3(C)C(=O)CC[C@H]3[C@H]12	94.2	94.5	–
C[C@]12C=CC(=O)C=C1C[C@@H](CC1CO1)[C@@H]1[C@@H]2CC[C@]2(C)C(=O)CC[C@@H]12 (some centres undefined)	72.3	76.3	–
C[C@]12CC[C@H]3C[C@H]3[C@@H]1CC[C@@H]1[C@@H]2CC[C@]2(C)C(=O)CC[C@@H]12	89.3	95.3	IC50 [3]: 110 nM
C[C@]12CCC(=O)C=C1CC[C@@H]1C2=CC[C@]2(C)C(=O)CC[C@@H]12	96.4	95.2	–
C[C@]12CC[C@H]3[C@@H](CC[C@]45O[C@H]4CCC[C@]35C)[C@@H]1CCC2=O	64.8	85.5	IC50 [3]: 530 nM
C[C@]12CCC3=C(OCCO3)C1=CC[C@@H]1[C@@H]2CC[C@]2(C)C(=O)CC[C@@H]12	–	55.9	–
C[C@]12CCC(=O)C(O)=C1CC[C@@H]1[C@@H]2CC[C@]2(C)C(=O)CC[C@@H]12 [FORMESTANE]	–	–	inhibition at 0.5 µM [4]: 99.2%; inhibition at 1 µM [5]: 96.1%

— ChEMBL document CHEMBL3797024, “Exploring new chemical functionalities to improve aromatase inhibition of steroids” (Bioorg Med Chem, 2016)
